# Biological target: T1, legumain (Homo sapiens, UniProt Q99538)
# T1 construct: purchased R&D Systems 2199-CY
# T1 sequence (Q99538 18-323 limits assumed): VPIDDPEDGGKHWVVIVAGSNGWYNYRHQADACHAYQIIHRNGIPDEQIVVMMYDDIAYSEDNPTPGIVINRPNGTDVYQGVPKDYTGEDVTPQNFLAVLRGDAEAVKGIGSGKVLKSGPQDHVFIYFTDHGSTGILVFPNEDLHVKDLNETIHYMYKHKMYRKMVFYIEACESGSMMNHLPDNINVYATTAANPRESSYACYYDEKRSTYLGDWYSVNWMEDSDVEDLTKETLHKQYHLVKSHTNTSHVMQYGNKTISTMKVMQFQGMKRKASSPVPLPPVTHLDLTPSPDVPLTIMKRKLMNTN
# Experiment: Legumain assay (enzymatic cleavage of prodrug)
# Assay type: biochemical
# Details: recombinant human legumain, rh legumain 1 ng/μl, 50 mM MES buffer, 250 mM NaCl, pH 5.0, read-out: half-life of legumain cleavage to the target compound (converted)
# Method: The legumain assay was conducted with recombinant human enzyme. The rh legumain enzyme solution (catalogue #2199-CY, R&D Systems) was diluted to the desired concentration in 50 mM Na acetate buffer/100 mM NaCl, pH4.0 and preincubated at 37° C. for 2 h. rh legumain was then adjusted to a final concentration of 1 ng/μl in 50 mM MES buffer, 250 mM NaCl, pH 5.0. For every legumain-cleavable prodrug to be examined, a mixture was made up in a micro reaction vessel (0.5 ml, from Eppendorf). For this purpose, the substrate solution was adjusted to the desired concentration (double concentration) with 50 mM MES buffer, 250 mM NaCl, pH 5.0. For the kinetic measurement of the enzymatic reaction, 250 μl of the legumain solution were first initially charged and the enzyme reaction was started by adding 250 μl of the substrate solution (final concentration: single concentration). At different times, 50 μL samples were taken. This sample was admixed immediately with 100 μl of ice-cold methanol in order to stop the enzymatic reaction and then frozen at −20° C. The times selected for sampling were after 0.5 h, 1 h, 3 h and 24 h. The samples were then analysed by means of RP-HPLC analysis and by LC-MS analysis. The determination of the toxophore released enabled the determination of the half-life t1/2 of the enzymatic reaction. […]
smiles,measurement,value
"CNC(=O)[C@H](CCN(C(=O)CO)[C@@H](c1cc(-c2cc(F)ccc2F)cn1Cc1ccccc1)C(C)(C)C)NC(=O)[C@H](CC(N)=O)NC(=O)[C@H](C)NC(=O)[C@H](C)NC(=O)Cc1ccncc1 [Compound A, N-(Pyridin-4-ylacetyl)-L-alanyl-L-alanyl-N^1-[(2S)-4-[{(1R)-1-[1-benzyl-4-(2,5-difluorophenyl)-1H-pyrrol-2-yl]-2,2-dimethylpropyl}(glycoloyl)amino]-1-(methylamino)-1-oxobutan-2-yl]-L-aspartamide]",half-life,1.1 h
